This is an account of results in article PMC10045663, “Synthesis, In Vitro Biological Evaluation of Antiproliferative and Neuroprotective Effects and In Silico Studies of Novel 16E-Arylidene-5α,6α-epoxyepiandrosterone Derivatives” (Biomedicines, 2023).

For one assay, the system named is 5AR type 2. On the set-up: method as in PMID 26377677. The following applies: read-out: IC50 against 5AR type 2; cited from earlier work.
In assay [1] the test system is NHDF cells (normal human dermal fibroblasts). The assay can be described thus: MTT cell proliferation assay, NHDF cells. The class given is cell-based. The note with it: Homo sapiens, NHDF, 72 h, non-tumoral cells, read-out: Estimated IC50, NHDF. The procedure: (§1) LNCaP, PC-3, MCF-7, PNT1A, N27, and NHDF cells were obtained from the American Type Culture Collection (ATCC; Manassas, VA, USA) and were cultured in 75 cm^2 culture flasks at 37 °C in a humidified air incubator with 5% CO2. LNCaP, PC-3, PNT1A, and N27 cells, respectively, were cultured in RPMI 1640 medium (Sigma-Aldrich, Inc. St. Louis, MO, USA) with 10% fetal bovine serum (FBS; Sigma-Aldrich, Inc. St. Louis, MO, USA) and 1% of the antibiotic mixture of 10,000 U/mL penicillin G and […] streptomycin (Sp, Sigma-Aldrich, Inc. St. Louis, MO, USA). MCF-7 cells were cultured in DMEM medium (Sigma-Aldrich, Inc. St. Louis, MO, USA) supplemented with 10% fetal bovine serum (FBS; Sigma-Aldrich, Inc. St. Louis, MO, USA) and 1% antibiotic/antimycotic (10,000 U/mL penicillin G, […] streptomycin, and 25 µg/mL amphotericin B: Ab, Sigma-Aldrich, Inc. St. Louis, MO, USA). Finally, NHDF cells were cultured in RPMI 1640 medium supplemented with 10% FBS, 2 mM L-glutamine, 10 mM HEPES, 1 mM sodium pyruvate, and 1% of the antibiotic/antimycotic Ab, and these cells were used in passages 10th to 14th. For all cell types, the medium was renewed every 2 days until cells nearly reached the confluence state. When cells reach approximately 90–95% confluence, they are gently detached by trypsinization (trypsin-EDTA solution: 0.125 g/L of trypsin and 0.02 g/L of EDTA). Before each experiment, viable cells were counted in a Neubauer chamber by a trypan-blue exclusion assay and adequately diluted in the appropriate complete cell culture medium.
(§2) All tested compounds were dissolved in dimethyl sulfoxide (DMSO; Sigma-Aldrich, Inc. St. Louis, MO, USA) at a concentration of 10 mM and stored at 4 °C. From the mother-solutions, the diluted solutions of the compounds, in different concentrations, were prepared in the respective complete culture medium before each experiment.
(§3) After reaching a confluence state, cells were trypsinized and counted by the trypan-blue exclusion assay and then seeded with an initial density of 2 × 10^4 cells/mL in 96-well culture plates (Nunc, Apogent, Denmark) and left to adhere and grow for 48 h. Subsequently, the medium was removed, and the cells were treated with compound solutions (10 and 50 µM for preliminary studies and 0.01, 0.1, 1, 10, 50, and 100 µM for concentration-response studies) in complete culture medium for 72 h. 5-Fluorouracil (5-FU) was used as a positive control, and untreated cells were used as the negative control. Compounds leading to cell proliferation relative to control clearly below 50%, at 10 µM, or clearly below 25%, at 50 µM, in the screening studies were selected to concentration-response studies in tumoral cell lines. Each experiment was performed in quadruplicate and independently at least two times. The in vitro antiproliferative effects were evaluated by the MTT assay (Sigma-Aldrich, Inc. St. Louis, MO, USA). After the incubation period, the medium was removed, and 100 µL of phosphate buffer saline (PBS, NaCl 137 mM; KCl 2.7 mM; Na2HPO4 10 mM; and KH2PO4 1.8 mM in deionized water with a pH adjusted to 7.4) were used to wash the cells. Then, 100 µL of the MTT solution (5 mg/mL) was prepared in the appropriate serum-free medium and added to each well, followed by incubation for 4 h at 37 °C. Hereafter, the MTT containing medium was removed, and the formazan crystals were dissolved in DMSO. Then, the absorbance was measured at 570 nm using a xMarkTM microplate spectrophotometer from BIO-RAD Laboratories. Cell viability values were expressed as percentages relative to the negative control.

Assay [2] relates to PNT1A (normal prostate cells). The experiment in a line: MTT cell proliferation assay, PNT1A cells. The class given is cell-based. The note with it: Homo sapiens, PNT1A, 72 h, non-tumoral cells, read-out: Estimated IC50, PNT1A. The procedure:
as §1, §2, §3

Assay [3] concerns N27 (rat dopaminergic neuronal cells). The assay can be described thus: MTT cell proliferation assay, N27 cells. The class given is cell-based. The following applies: Rattus norvegicus, N27, 72 h, non-tumoral cells, read-out: Estimated IC50, N27. The procedure: as §1, §2, §3
Assay [4] has as its system LNCaP cells (androgen-dependent prostatic cancer). The assay can be described thus: MTT cell proliferation assay, LNCaP cells. The class given is cell-based. The following applies: Homo sapiens, LNCaP; MTT, 72 h, tumoral cells; read-out: Estimated IC50, LNCaP. The procedure: as §1, §2, §3
Assay [5] concerns PC-3 cells (androgen-independent prostatic cancer). The experiment in a line: MTT cell proliferation assay, PC-3 cells. The class given is cell-based. The following applies: Homo sapiens, PC-3; MTT, 72 h, tumoral cells; read-out: Estimated IC50, PC-3. The method, then: as §1, §2, §3
The test system of assay [6] is MCF-7 cells (estrogen-responsive breast cancer cells). The experiment in a line: MTT cell proliferation assay, MCF-7 cells. The class given is cell-based. The note with it: Homo sapiens, MCF7; MTT, 72 h, tumoral cells; read-out: Estimated IC50, MCF-7. The method, then:
as §1, §2, §3

Assay [7] concerns MCF-7 cells. The experiment in a line: Immunocytochemistry assay, Ki67 staining. The class given is cell-based. The note with it: 48 h. The procedure: MCF-7 cells were trypsinized and counted by the trypan-blue exclusion assay, and then cells were seeded with an initial density of 3 × 10^4 cells/mL in 24-well culture plates (Nunc, Apogent, Denmark) containing circular coverslips of 10 mm diameter. Following seeding (48 h), cells were treated with 1 and 10 µM concentrations of 5-FU, as positive controls, and steroid 19 for 48 h. Untreated cells were used as a negative control. After this period, photograph shots were acquired at an optical microscope coupled with a digital camera (Supplementary Material, S2). Subsequently, the medium was removed, and cells were fixed with 10% formalin (15 min, room temperature). After fixation, cells were washed three times with PBS, permeabilized, and blocked for non-specific binding sites for 1 h with 0.5% Triton X-100 and 6% BSA at room temperature. Cells were incubated at 4 °C with 30 μL/coverslip of primary antibody, rabbit polyclonal anti-Ki67 (1:50, Abcam Plc.), prepared in 0.3% BSA and 0.1% Triton X-100, overnight. Then, cells were washed three times with PBS and incubated for 1 h, at room temperature, with 30 μL/coverslip of a solution containing the secondary antibody, Alexa Fluor 488 donkey anti-rabbit (1:200, Life Technologies), and the nuclear marker Hoechst-33342 (1:500, Life Technologies) prepared in PBS. Lastly, the coverslips were washed three times with PBS, mounted on a drop of the fluoroshield mounting medium (Abcam, Plc.) on a microscope slide, and left to dry for 24 h. Photomicrographs were taken using an Axio Imager A1 microscope (Carl Zeiss, Göttingen, Germany) with the 40 × objective.

The test system of assay [8] is MCF-7 cells. The experiment in a line: PI incorporation (propidium iodide staining). Format: cell-based. The following applies: 48 h. The procedure:
After 48 h of being seeded at the same conditions explained in the previous (Section 2.2.4), MCF-7 cells were treated with the steroidal derivatives 19 and 5-FU at 1 and 10 µM and maintained in culture for 48 h. Untreated cells were also used as a negative control. Subsequently, cells were incubated with 20 µL/per well of a propidium iodide solution (PI; 1 mg/mL in PBS; Sigma-Aldrich Co. LLC) for 25 min at 37 °C. Then, the medium was removed, and the cells were fixed with 10% formalin for 15 min at room temperature. Cells were washed three times with PBS and incubated with 30 µL/per coverslip of Hoechst-33342 (1:500) for 10 min. After incubation, cells were washed three times with PBS. Coverslips were mounted on a drop of the fluoroshield mounting medium on a microscope slide, left to dry for 24 h, and then visualized in a Zeiss Axio Imager A1 microscope with the 40× objective.

Assay [9] concerns MCF-7 cells. The assay can be described thus: Nearest neighbor distance analysis with ImageJ. Format: cell-based. The note with it: MCF-7, 1 and 10 µM, 48 h. An excerpt: The nuclear measurements were achieved by converting 16-bit photomicrographs of Hoechst 33342-stained nuclei in different studied conditions into 8-bit images. Then, these imagens were autothresholded to binary photos using the default “Make binary” function of ImageJ (v. 1.49) software (NIH Image, Bethesda, MD, USA). Cell nuclei that are touching were separated and fragments were discarded based on area through “Analyze Particle” function. This function also provides several other information, such as nuclear area (NA), circumference, and form factor [26]. Furthermore, the “Nearest Neighbor Distance” (NND) was determined. This function allows measuring the distance between each cell nucleus and the nearest ones, providing information about cell distribution.

The test system of assay [10] is T47-D cells (breast cancer). On the set-up: method as in PMID 23635011. The note with it: MTT assay, read-out: IC50 against T47-D cells; cited from earlier work.
For assay [11], the system named is KB (nasopharyngeal epidermoid carcinoma). On the set-up: method as in PMID 23635011. The note with it: read-out: IC50 against KB cells; cited from earlier work.

With `C[C@]12CCC3C(C[C@@H]4O[C@@]45C[C@@H](O)CC[C@]35C)C1CC=C2C(=O)COC(=O)c1ccc(F)cc1` (stereo partly drawn) [21(p-fluoro)benzoyloxy-5α,6α-epoxy-3β-hydroxypregna-16-en-20-one], the IC50 in the assay with 5AR type 2 is 0.179 µM.
For `O=c1[nH]cc(F)c(=O)[nH]1` [Compound 5-FU, 5-Fluorouracil, reference compound], the IC50 was 6.34 µM in [1]; 6.48 µM in assay [2]; 3.19 µM in assay [3]; 9.43 µM in assay [4]; 21.2 µM in assay [5]; 6.3 µM in assay [6]. The “Ki67-positive cells relative to control” value in the assay with MCF-7 cells [7] (MCF-7, 1 µM) was “none of the compounds significantly affected”; in the assay on MCF-7 cells [7] (MCF-7, 10 µM), “statistically significant decrease”. Besides, the “PI-positive cells relative to the negative control” value with MCF-7 cells [8] (MCF-7, 1 µM) is “no significant effect”; in the assay with MCF-7 cells [8] (MCF-7, 10 µM), “significantly increase”. Besides, the “cell distribution (nearest neighbor distance, NND)” value with MCF-7 cells [9] is reported as “more random distribution with nuclei more spaced”.
With `C[C@]12CC[C@H](O)CC1=CCC1C2CC[C@]2(C)C(=O)/C(=C/c3cccc(Cl)c3)CC12` (some centres unmarked) [reference compound], the results for the IC50 in assay [10] and in [11] were 1.7 µM and 0.6 µM, respectively.
